# Source: article PMC5218480 (PLoS ONE, 2017)
# Test system: MV-4-11 cells
# Assay: Gene expression microarray analysis (Affymetrix PrimeView) and GSEA
# Assay type: cell-based, human
# Design: RFU PODN (11730768_x_at) / Fold change /veh PODN (11730768_x_at) / RFU LINC00158 (11744669_a_at) / Fold change /veh LINC00158 (11744669_a_at) / RFU DUSP10 (11751237_a_at) / Fold change /veh DUSP10 (11751237_a_at) / RFU ID3 (11757404_x_at) / Fold change /veh ID3 (11757404_x_at) / RFU PLEKHG5 (11737974_s_at) / Fold change /veh PLEKHG5 (11737974_s_at) / RFU LRRC4B (11730491_at) / Fold change /veh LRRC4B (11730491_at) / RFU GIMAP4 (11747438_a_at) / Fold change /veh GIMAP4 (11747438_a_at) / RFU KRT8 (11758183_x_at) / Fold change /veh KRT8 (11758183_x_at) / RFU CNN1 (11734310_a_at) / Fold change /veh CNN1 (11734310_a_at) / RFU VPS37D (11726825_at) / Fold change /veh VPS37D (11726825_at) / RFU C10orf10 (11716522_x_at) / Fold change /veh C10orf10 (11716522_x_at) / RFU KIR2DL2 /// KIR2DL4 /// KIR2DL5A /// KIR2DL5B /// KIR2DS1 /// KIR2DS2 /// KIR2DS3 /// KIR2DS4 /// KIR3DL3 /// KIR3DL3 /// KIR3DS1 (11738374_at) / Fold change /veh KIR2DL2 /// KIR2DL4 /// KIR2DL5A /// KIR2DL5B /// KIR2DS1 /// KIR2DS2 /// KIR2DS3 /// KIR2DS4 /// KIR3DL3 /// KIR3DL3 /// KIR3DS1 (11738374_at) / RFU C1QL1 (11718748_at) / Fold change /veh C1QL1 (11718748_at) / RFU TMPRSS4 (11747572_a_at) / Fold change /veh TMPRSS4 (11747572_a_at) / RFU HAMP (11756126_x_at) / Fold change /veh HAMP (11756126_x_at) / RFU RNFT2 (11725882_a_at) / Fold change /veh RNFT2 (11725882_a_at) / RFU NR4A2 (11747474_a_at) / Fold change /veh NR4A2 (11747474_a_at) / RFU ABCC12 (11746883_a_at) / Fold change /veh ABCC12 (11746883_a_at) / RFU TMEM136 (11760407_x_at) / Fold change /veh TMEM136 (11760407_x_at) / RFU CLDN22 /// WWC2 (11732394_at) / Fold change /veh CLDN22 /// WWC2 (11732394_at) / RFU HLA-DPB1 (11760878_x_at) / Fold change /veh HLA-DPB1 (11760878_x_at) / RFU SPINT1 (11716480_a_at) / Fold change /veh SPINT1 (11716480_a_at) / RFU GAP43 (11754022_s_at) / Fold change /veh GAP43 (11754022_s_at) / RFU A4GNT (11735810_at) / Fold change /veh A4GNT (11735810_at) / RFU PRB3 (11715151_x_at) / Fold change /veh PRB3 (11715151_x_at) / RFU TUBB4B (11761932_at) / Fold change /veh TUBB4B (11761932_at) / RFU CAPN14 (11732068_a_at) / Fold change /veh CAPN14 (11732068_a_at) / RFU TMCC2 (11721928_a_at) / Fold change /veh TMCC2 (11721928_a_at) / RFU IRGQ (11745062_a_at) / Fold change /veh IRGQ (11745062_a_at) / RFU FAM174B (11720279_a_at) / Fold change /veh FAM174B (11720279_a_at) / RFU TMPRSS4 (11748680_a_at) / Fold change /veh TMPRSS4 (11748680_a_at) / RFU FAM212B (11763350_a_at) / Fold change /veh FAM212B (11763350_a_at) / RFU PLEKHG5 (11743358_a_at) / Fold change /veh PLEKHG5 (11743358_a_at) / RFU ZSCAN30 (11745921_a_at) / Fold change /veh ZSCAN30 (11745921_a_at) / RFU CMKLR1 (11741424_a_at) / Fold change /veh CMKLR1 (11741424_a_at) / RFU LOC101060620 /// MAPK8IP1 (11723275_at) / Fold change /veh LOC101060620 /// MAPK8IP1 (11723275_at) / RFU SPTSSB (11747773_x_at) / Fold change /veh SPTSSB (11747773_x_at) / RFU PRSS12 (11739890_at) / Fold change /veh PRSS12 (11739890_at) / RFU BIN1 (11741810_x_at) / Fold change /veh BIN1 (11741810_x_at) / RFU WNT11 (11732464_a_at) / Fold change /veh WNT11 (11732464_a_at) / RFU C10orf10 (11716521_a_at) / Fold change /veh C10orf10 (11716521_a_at) / RFU C5orf56 (11738089_at) / Fold change /veh C5orf56 (11738089_at) / RFU CYB561 (11721691_x_at) / Fold change /veh CYB561 (11721691_x_at) / RFU ANKRD19P (11752326_a_at) / Fold change /veh ANKRD19P (11752326_a_at) / RFU OR2T12 /// OR2T33 /// OR2T8 (11738714_s_at) / Fold change /veh OR2T12 /// OR2T33 /// OR2T8 (11738714_s_at) / RFU VCAN (11748164_a_at) / Fold change /veh VCAN (11748164_a_at) / RFU JSRP1 (11732532_at) / Fold change /veh JSRP1 (11732532_at) / RFU KRTAP10-11 (11738290_x_at) / Fold change /veh KRTAP10-11 (11738290_x_at) / RFU MYO3A (11730013_a_at) / Fold change /veh MYO3A (11730013_a_at) / RFU EBF3 (11725865_a_at) / Fold change /veh EBF3 (11725865_a_at) / RFU CAMK2N1 (11719241_x_at) / Fold change /veh CAMK2N1 (11719241_x_at) / RFU C5orf56 (11738088_a_at) / Fold change /veh C5orf56 (11738088_a_at) / RFU OLFML3 (11715873_a_at) / Fold change /veh OLFML3 (11715873_a_at) / RFU LOC100653217 /// NTM (11731650_a_at) / Fold change /veh LOC100653217 /// NTM (11731650_a_at) / RFU MAPK11 (11762145_a_at) / Fold change /veh MAPK11 (11762145_a_at) / RFU FIZ1 (11724087_x_at) / Fold change /veh FIZ1 (11724087_x_at) / RFU OASL (11726364_x_at) / Fold change /veh OASL (11726364_x_at) / RFU SOX15 (11748057_x_at) / Fold change /veh SOX15 (11748057_x_at) / RFU CD79A (11719716_a_at) / Fold change /veh CD79A (11719716_a_at) / RFU HIST1H1D (11736915_at) / Fold change /veh HIST1H1D (11736915_at) / RFU CASKIN2 (11723855_a_at) / Fold change /veh CASKIN2 (11723855_a_at) / RFU LOC730098 (11760151_x_at) / Fold change /veh LOC730098 (11760151_x_at) / RFU OR4N2 (11742367_at) / Fold change /veh OR4N2 (11742367_at) / RFU PRRT2 (11749266_a_at) / Fold change /veh PRRT2 (11749266_a_at) / RFU SNX32 (11753110_a_at) / Fold change /veh SNX32 (11753110_a_at) / RFU CDHR5 (11726645_a_at) / Fold change /veh CDHR5 (11726645_a_at) / RFU RCAN1 (11760418_a_at) / Fold change /veh RCAN1 (11760418_a_at) / RFU FAM167A (11723789_a_at) / Fold change /veh FAM167A (11723789_a_at) / RFU FAM26E (11764081_at) / Fold change /veh FAM26E (11764081_at) / RFU ISYNA1 (11749810_s_at) / Fold change /veh ISYNA1 (11749810_s_at) / RFU ACY1 (11761880_at) / Fold change /veh ACY1 (11761880_at) / RFU 11764098_at / Fold change /veh 11764098_at / RFU SAMD14 (11745864_x_at) / Fold change /veh SAMD14 (11745864_x_at) / RFU NPB (11741838_a_at) / Fold change /veh NPB (11741838_a_at) / RFU TMPRSS6 (11731388_a_at) / Fold change /veh TMPRSS6 (11731388_a_at) / RFU KRTAP10-2 (11738614_at) / Fold change /veh KRTAP10-2 (11738614_at) / RFU ARHGAP8 /// PRR5-ARHGAP8 (11727945_x_at) / Fold change /veh ARHGAP8 /// PRR5-ARHGAP8 (11727945_x_at) / RFU KRTAP5-7 /// NADSYN1 (11734609_at) / Fold change /veh KRTAP5-7 /// NADSYN1 (11734609_at) / RFU RASL12 (11751679_a_at) / Fold change /veh RASL12 (11751679_a_at) / RFU CDKN2B (11736163_a_at) / Fold change /veh CDKN2B (11736163_a_at) / RFU PRF1 (11729649_at) / Fold change /veh PRF1 (11729649_at) / RFU, ZNF638 /// ZNF638-IT1 / Fold change vs veh, ZNF638 /// ZNF638-IT1 / RFU, PANK3 / Fold change vs veh, PANK3 / RFU, SH3YL1 / Fold change vs veh, SH3YL1 / RFU, ZEB2 / Fold change vs veh, ZEB2 / RFU, NRIP1 / Fold change vs veh, NRIP1 / RFU, PTTG1IP / Fold change vs veh, PTTG1IP / RFU, CAPN2 / Fold change vs veh, CAPN2 / RFU, MED14 / Fold change vs veh, MED14 / RFU, SNORA58 / Fold change vs veh, SNORA58 / RFU, C1orf63 / Fold change vs veh, C1orf63 / RFU, LRRFIP1 / Fold change vs veh, LRRFIP1 / RFU, NDUFAF7 / Fold change vs veh, NDUFAF7 / RFU, SLC12A2 / Fold change vs veh, SLC12A2 / RFU, IBTK / Fold change vs veh, IBTK / RFU, ESF1 / Fold change vs veh, ESF1 / Fold change vs veh, TMEM50B / RFU, TAOK1 / Fold change vs veh, TAOK1 / RFU, ACBD3 / Fold change vs veh, ACBD3 / RFU, TMA16 / Fold change vs veh, TMA16 / RFU, RWDD3 / Fold change vs veh, RWDD3 / RFU, BCAT1 / Fold change vs veh, BCAT1 / RFU, EDEM3 / Fold change vs veh, EDEM3 / RFU, TMEM33 / Fold change vs veh, TMEM33 / RFU, WDR75 / Fold change vs veh, WDR75 / RFU, AHCTF1 / Fold change vs veh, AHCTF1 / RFU, TFRC / Fold change vs veh, TFRC / RFU, ZDHHC17 / Fold change vs veh, ZDHHC17 / RFU, NOM1 / Fold change vs veh, NOM1 / RFU, ARL8B / Fold change vs veh, ARL8B / RFU, ZBTB11 / Fold change vs veh, ZBTB11 / RFU, TAMM41 / Fold change vs veh, TAMM41 / RFU, KIAA1704 /// LOC100996395 / Fold change vs veh, KIAA1704 /// LOC100996395 / RFU, ING1 / Fold change vs veh, ING1 / RFU, TRMT61B / Fold change vs veh, TRMT61B / RFU, FUBP3 / Fold change vs veh, FUBP3 / RFU, TP53 / Fold change vs veh, TP53 / RFU, TNKS2 / Fold change vs veh, TNKS2 / RFU, ZFP14 / Fold change vs veh, ZFP14 / RFU, ACTR2 / Fold change vs veh, ACTR2 / RFU, PPP3R1 / Fold change vs veh, PPP3R1 / RFU, PIK3R1 / Fold change vs veh, PIK3R1 / RFU, HNRNPA1 / Fold change vs veh, HNRNPA1 / RFU, RNF170 / Fold change vs veh, RNF170 / RFU, ZNF28 / Fold change vs veh, ZNF28 / RFU, RNGTT / Fold change vs veh, RNGTT / RFU, OGT / Fold change vs veh, OGT / RFU, BRD1 / Fold change vs veh, BRD1 / RFU, MARS / Fold change vs veh, MARS / RFU, ZNF655 / Fold change vs veh, ZNF655 / RFU, FAHD1 / Fold change vs veh, FAHD1 / RFU, BDP1 / Fold change vs veh, BDP1 / RFU, LRRCC1 / Fold change vs veh, LRRCC1 / RFU, ARID1A / Fold change vs veh, ARID1A / RFU, ZNF146 / Fold change vs veh, ZNF146 / RFU, ZNF330 / Fold change vs veh, ZNF330 / RFU, GPN3 / Fold change vs veh, GPN3 / RFU, C9orf123 / Fold change vs veh, C9orf123 / RFU, N4BP2L2 / Fold change vs veh, N4BP2L2 / RFU, ARFIP1 / Fold change vs veh, ARFIP1 / RFU, FAM179B / Fold change vs veh, FAM179B / RFU, BCL10 / Fold change vs veh, BCL10 / RFU, UHRF1BP1L / Fold change vs veh, UHRF1BP1L / RFU, BET1 / Fold change vs veh, BET1 / RFU, CNOT2 / Fold change vs veh, CNOT2 / RFU, ZNF268 / Fold change vs veh, ZNF268 / Fold change vs veh, ZNF507 / RFU, DGCR2 / Fold change vs veh, DGCR2 / RFU, WDSUB1 / Fold change vs veh, WDSUB1 / Fold change vs veh, HSP90B1 /// MIR3652 / RFU, ADSS / Fold change vs veh, ADSS / RFU, GK / Fold change vs veh, GK / RFU, ZNF148 / Fold change vs veh, ZNF148 / RFU, TAF9 / Fold change vs veh, TAF9 / RFU, SLC1A5 / Fold change vs veh, SLC1A5 / RFU, SLMO2 / Fold change vs veh, SLMO2 / RFU, ABCC4 / Fold change vs veh, ABCC4 / RFU, LOC101060439 /// RAP1B / Fold change vs veh, LOC101060439 /// RAP1B / RFU, RFX7 / Fold change vs veh, RFX7 / RFU, GTPBP10 / Fold change vs veh, GTPBP10 / RFU, CNEP1R1 / Fold change vs veh, CNEP1R1 / RFU, BIVM-ERCC5 /// ERCC5 / Fold change vs veh, BIVM-ERCC5 /// ERCC5 / RFU, ILF3 / Fold change vs veh, ILF3 / RFU 11762660_at / Fold change /veh 11762660_at / RFU VCAN (11757783_s_at) / Fold change /veh VCAN (11757783_s_at) / RFU DDX43 (11728927_at) / Fold change /veh DDX43 (11728927_at) / RFU KRT8 (11758188_x_at) / Fold change /veh KRT8 (11758188_x_at) / RFU NKD1 (11759106_at) / Fold change /veh NKD1 (11759106_at) / RFU SRD5A1 (11742802_a_at) / Fold change /veh SRD5A1 (11742802_a_at) / RFU TPSAB1 /// TPSB2 (11721975_s_at) / Fold change /veh TPSAB1 /// TPSB2 (11721975_s_at) / RFU GSTM3 (11746129_a_at) / Fold change /veh GSTM3 (11746129_a_at) / RFU IL23R (11737362_x_at) / Fold change /veh IL23R (11737362_x_at) / RFU TMEM51 (11727254_a_at) / Fold change /veh TMEM51 (11727254_a_at) / RFU PIWIL2 (11732686_x_at) / Fold change /veh PIWIL2 (11732686_x_at) / RFU ORM1 (11744905_x_at) / Fold change /veh ORM1 (11744905_x_at) / RFU CCDC152 (11743942_at) / Fold change /veh CCDC152 (11743942_at) / RFU ECM1 (11717891_a_at) / Fold change /veh ECM1 (11717891_a_at) / RFU IL23R (11748794_a_at) / Fold change /veh IL23R (11748794_a_at) / RFU TNFAIP8L3 (11732012_x_at) / Fold change /veh TNFAIP8L3 (11732012_x_at) / RFU MBOAT4 (11741988_at) / Fold change /veh MBOAT4 (11741988_at) / RFU 11764193_at / Fold change /veh 11764193_at / RFU TMEM53 (11763286_at) / Fold change /veh TMEM53 (11763286_at) / RFU MAGEB2 (11727129_at) / Fold change /veh MAGEB2 (11727129_at) / RFU TMEM200A (11744735_a_at) / Fold change /veh TMEM200A (11744735_a_at) / RFU CCDC152 (11751479_a_at) / Fold change /veh CCDC152 (11751479_a_at) / RFU FAM211A (11726209_a_at) / Fold change /veh FAM211A (11726209_a_at) / RFU RGS16 (11746705_a_at) / Fold change /veh RGS16 (11746705_a_at) / RFU VCAN (11755009_s_at) / Fold change /veh VCAN (11755009_s_at) / RFU RHOB (11743442_s_at) / Fold change /veh RHOB (11743442_s_at) / RFU RGS16 (11720943_a_at) / Fold change /veh RGS16 (11720943_a_at) / RFU RGS16 (11720944_at) / Fold change /veh RGS16 (11720944_at) / RFU, VPS4B / Fold change vs veh, VPS4B / RFU, CREB1 / Fold change vs veh, CREB1 / RFU, DNAJC13 / Fold change vs veh, DNAJC13 / RFU, GNAQ / Fold change vs veh, GNAQ / RFU, CDK5R1 / Fold change vs veh, CDK5R1 / RFU, ZRANB3 / Fold change vs veh, ZRANB3 / RFU, CUL4A / Fold change vs veh, CUL4A / RFU, CCNY / Fold change vs veh, CCNY / RFU, UFL1 / Fold change vs veh, UFL1 / RFU, COG3 / Fold change vs veh, COG3 / RFU, DIAPH2 / Fold change vs veh, DIAPH2 / RFU, SKA2 / Fold change vs veh, SKA2 / RFU, AFF3 / Fold change vs veh, AFF3 / RFU, LMF1 / Fold change vs veh, LMF1 / RFU, IPO11 / Fold change vs veh, IPO11 / RFU, DFFB / Fold change vs veh, DFFB / RFU, FOXP1 / Fold change vs veh, FOXP1 / RFU, CARD8 / Fold change vs veh, CARD8 / RFU, STRN3 / Fold change vs veh, STRN3 / RFU, ADK / Fold change vs veh, ADK / RFU, RASSF2 / Fold change vs veh, RASSF2 / RFU, WIPF1 / Fold change vs veh, WIPF1 / RFU, LARP1B / Fold change vs veh, LARP1B / RFU, RASA1 / Fold change vs veh, RASA1 / RFU, RB1 / Fold change vs veh, RB1 / RFU, PPFIA1 / Fold change vs veh, PPFIA1 / RFU, MAT2A / Fold change vs veh, MAT2A / RFU, CCT5 / Fold change vs veh, CCT5 / RFU, WDR92 / Fold change vs veh, WDR92 / RFU, CUX1 / Fold change vs veh, CUX1 / RFU, TTC7A / Fold change vs veh, TTC7A / RFU, TMEM135 / Fold change vs veh, TMEM135 / RFU, DEPTOR / Fold change vs veh, DEPTOR / RFU, CPM / Fold change vs veh, CPM / RFU, DNAJB6 / Fold change vs veh, DNAJB6 / RFU, CACNA2D3 / Fold change vs veh, CACNA2D3 / RFU, DTX4 / Fold change vs veh, DTX4 / RFU, TFCP2 / Fold change vs veh, TFCP2 / RFU, GMCL1 /// GMCL1P1 / Fold change vs veh, GMCL1 /// GMCL1P1 / RFU, AEBP2 / Fold change vs veh, AEBP2 / RFU, SNHG1 /// SNORD22 /// SNORD25 /// SNORD26 /// SNORD27 /// SNORD28 /// SNORD29 /// SNORD31 / Fold change vs veh, SNHG1 /// SNORD22 /// SNORD25 /// SNORD26 /// SNORD27 /// SNORD28 /// SNORD29 /// SNORD31 / Fold change (Aza/veh), C12orf56 (ProbeSet 11735607_a_at) / Fold change (ACY-1035/veh), C12orf56 (ProbeSet 11735607_a_at) / Fold change (Aza/veh), FGFR1OP (ProbeSet 11751329_s_at) / Fold change (ACY-1035/veh), FGFR1OP (ProbeSet 11751329_s_at) / Fold change (Aza/veh), VPS36 (ProbeSet 11739960_a_at) / Fold change (ACY-1035/veh), VPS36 (ProbeSet 11739960_a_at) / RFU SYPL1 (11715823_x_at) / Fold change /veh SYPL1 (11715823_x_at) / RFU IGFBP7 (11715501_s_at) / Fold change /veh IGFBP7 (11715501_s_at) / RFU REEP3 (11722064_at) / Fold change /veh REEP3 (11722064_at) / RFU IGLL1 (11728026_x_at) / Fold change /veh IGLL1 (11728026_x_at): dose or concentration left out as unconfirmed
# Conditions: ProbeSet 11755425_a_at; LIST B
smiles,measurement,value
Nc1ncn([C@@H]2O[C@H](CO)[C@@H](O)[C@H]2O)c(=O)n1 [azacitidine],"RFU, FAM179B",66.28 RFU
